Square brackets hold non-standard residues; d marks the D form. Peptide text beside a SMILES is read from it.
Each molecule was assayed against SARS-CoV-2-PLpro enzyme (Severe acute respiratory syndrome coronavirus 2, UniProt P0DTD1) (assay: SARS-CoV-2-PLpro enzyme inhibition assay). Conditions: read-out: Percent inhibition.
Format: biochemical
Method: The inhibition assay was carried out as follows. 1 μM SARS-CoV-2-PLpro enzyme was incubated with 25 μM Arg-Leu-Arg-Gly-Gly-AMC substrate and 100 μM of the inhibitor peptide tested, in reaction buffer (100 mM NaCl, 50 mM HEPES [pH=7.5], 0.01 mg/mL bovine serum albumin, and 5 mM DTT) to a final volume of 50 μL. A control reaction with no inhibitory peptide was included and serves as the basis for “no inhibition”. Each reaction was carried in triplicate. The percentage inhibition was calculated by […].
In the case of `CC(C)C[C@@H](NC(=O)[C@@H](N)CO)C(=O)N[C@@H](CCCCN)C(=O)NCC(=O)NCC(=O)O` [Ser - Leu - Lys - Gly - Gly] (H-S[dL]KGG-OH), the inhibition at 100 µM was 0%. Work on `CC(C)C[C@@H](NC(=O)[C@@H](N)CCCNC(=N)N)C(=O)N[C@@H](CCCNC(=N)N)C(=O)NCC(=O)NCC(=O)O` [Arg - Leu - Arg - Gly - Gly] yielded an inhibition at 100 µM of 10 to 15%. In the case of `CC(C)C[C@@H](NC(=O)[C@@H](N)CCCNC(=N)N)C(=O)N[C@@H](CCCCN)C(=O)NCC(=O)NCC(=O)O` [Arg - Leu - Lys - Gly - Gly] (H-R[dL]KGG-OH), the inhibition at 100 µM was 5 to 10%. Molecule `CC(C)C[C@@H](NC(=O)[C@@H](N)CCC(=O)O)C(=O)N[C@@H](CC(N)=O)C(=O)NCC(=O)NCC(=O)O` [Glu - Leu - Asn - Gly - Gly] (H-E[dL]NGG-OH) has an inhibition at 100 µM of 0%.

From patent US12624066B2, “Inhibitors of coronavirus protease” (SUNSHINE BIOPHARMA INC., priority 2020, dated 2026)
